This is an account of results in ChEMBL document CHEMBL1287729, “Novel and efficient synthesis and antifungal evaluation of 2,3-functionalized cholestane and androstane derivatives” (2010).

≈ marks a conversion by molar mass, not a printed value. Calls of active or inactive are those of the source. The rule behind the calls is not given here.

In test [1] the test system is Aspergillus fumigatus. Description: Antifungal activity against Aspergillus fumigatus ATCC 16424 at 128-0.01 ug/ml by spectroscopy analysis. The test is classed as functional, organism-based.
In test [2] the test system is Candida albicans. Briefly: Antifungal activity against Candida albicans ATCC 10231 at 128-0.01 ug/ml spectroscopy analysis. Type of test: functional, organism-based.
In test [3] the test system is Nakaseomyces glabratus. Description: Antifungal activity against Candida glabrata ATCC 48435 at 128-0.01ug/ml spectroscopy analysis. The test is classed as functional, organism-based.
Test [4] deals with Cryptococcus neoformans. Description: Antifungal activity against Cryptococcus neoformans ATCC 36556 at128-0.01 ug/ml spectroscopy analysis. The test is classed as functional, organism-based.
The test system of test [5] is Cryptococcus neoformans. Briefly: Antifungal activity against Cryptococcus neoformans ATCC 36556 after 48 hrs by broth dilution method. The test is classed as functional. Particulars: ATCC 36556, 48 h. (Broth dilution looks for growth in wells or tubes with falling amounts of substance.)
Test [6] concerns Nakaseomyces glabratus. Briefly: Antifungal activity against Candida glabrata ATCC 48435 after 48 hrs by broth dilution method. The test is classed as functional. The conditions noted are these: ATCC 48435, 48 h.
Test [7] deals with Aspergillus fumigatus. Briefly: Antifungal activity against Aspergillus fumigatus ATCC 16424 after 48 hrs by broth dilution method. Type of test: functional. The conditions noted are these: ATCC 16424, 48 h.
Test [8] has as its system Candida albicans. Description: Antifungal activity against Candida albicans ATCC 10231 after 48 hrs by broth dilution method. Particulars: ATCC 10231, 48 h. The test is classed as functional.

As for `C[C@@]12CCC[C@H]1[C@@H]1CC[C@H]3C[C@@H](O)CC[C@]3(C)[C@H]1CC2`, the “growth inhibition (GI)” value in test [1], in test [2], in test [3] and in test [4] was “Active” in each case.
One may read the MIC as the lowest concentration that inhibits growth of the organism. For the compound `CC(C)CCC[C@@H](C)[C@H]1CC[C@H]2[C@@H]3CC[C@H]4C[C@@H](O)[C@H](O)C[C@]4(C)[C@H]3CC[C@]12C`, in test [5], it took 32 µg/mL (≈ 79.1 µM) to inhibit growth (MIC).
On the same count and under the same terms, the value for `CC(=O)O[C@@H]1C[C@@]2(C)[C@@H](CC[C@@H]3[C@@H]2CC[C@]2(C)[C@@H]([C@H](C)CCCC(C)C)CC[C@@H]32)C[C@H]1O` was 4 µg/mL (≈ 8.95 µM).
Take `CC(C)CCC[C@@H](C)[C@H]1CC[C@H]2[C@@H]3CC[C@H]4C[C@@H](OC(=O)CCC(=O)O)[C@H](OC(=O)CCC(=O)O)C[C@]4(C)[C@H]3CC[C@]12C`: the MIC was determined as 32 µg/mL (≈ 52.9 µM) in test [6] and 8 µg/mL (≈ 13.2 µM) in test [7] (read-out: MIC). For the same compound, the “growth inhibition (GI)” value in test [1] is “Active”.
Regarding `CC(=O)O[C@@H]1C[C@@]2(C)[C@@H](CC[C@H]3[C@@H]4CCC[C@@]4(C)CC[C@@H]32)CC1=O`, the MIC was determined as 1 µg/mL (≈ 3.01 µM) in test [7] (read-out: MIC) and 0.125 µg/mL (≈ 0.376 µM) in test [8].
As to `CC(=O)O[C@@H]1C[C@@]2(C)[C@@H](CC[C@@H]3[C@@H]2CC[C@]2(C)[C@@H]([C@H](C)CCCC(C)C)CC[C@@H]32)C[C@H]1OC(=O)CCC(=O)O`, the MIC in test [7] (read-out: MIC) was 2 µg/mL (≈ 3.66 µM); in test [5], 8 µg/mL (≈ 14.6 µM).
Compound `CC(=O)O[C@]12C[C@@H]3CC[C@@H]4[C@H](CC[C@]5(C)[C@@H]([C@H](C)CCCC(C)C)CC[C@@H]45)[C@@]3(C)C[C@H]1O2` registered an MIC in test [7] of 8 µg/mL (≈ 18 µM).
`CC(=O)O[C@]12C[C@@H]3CC[C@H]4[C@@H]5CCC[C@@]5(C)CC[C@@H]4[C@@]3(C)C[C@H]1O2` had an MIC in test [8] of 4 µg/mL (≈ 12 µM).
Take `CC(=O)O[C@@H]1C[C@@]2(C)[C@@H](CC[C@@H]3[C@@H]2CC[C@]2(C)[C@@H]([C@H](C)CCCC(C)C)CC[C@@H]32)CC1=O`: in test [7], the MIC is 128 µg/mL (≈ 288 µM). For the same compound, the “growth inhibition (GI)” value in test [2] was “Active”.
For the compound `CC(C)CCC[C@@H](C)[C@H]1CC[C@H]2[C@@H]3CC[C@H]4C[C@@H](O)CC[C@]4(C)[C@H]3CC[C@]12C`, the “growth inhibition (GI)” value in test [1], in test [2], in test [3] and in test [4] was “Active” throughout.
